# Source: patent US10292980B2, “GAPDH cascade inhibitor compounds and methods of use and treatment of stress induced disorders including mental illness” (THE JOHNS HOPKINS UNIVERSITY, priority 2012, dated 2019)
# Columns and labels:
# GAPDH-Siah1 binding = GAPDH-Siah1 binding (Homo sapiens, UniProt P04406); assay: in vitro binding of purified recombinant GAPDH and GST-Siah1 (GST-agarose pull down, western blot); settings: GAPDH pre-incubated with compound
# Procedure: (§1) FIG. 4A-4D depict a deprenyl derivative compound of the present invention that blocks GAPDH-Siah1 binding. […] FIG. 4B is a graph depicting inhibition of GAPDH-Siah1 binding by the RR compound in vitro. GAPDH was pre-incubated with the RR compound, then GST-Siah1 was added and binding was assessed by GST-agarose pull down followed by western blotting. The graph represents quantification results of the blots from 6 experiments. FIG. 4C is a pair of graphs depicting in vitro MAO activity. FIG. 4D is a bar graph showing glycolytic activity in cultured rat neonatal cardiac cells exposed to 1 nM RR for 48 hours *p<0.05.
# To test whether TAC elicits nuclear translocation of GAPDH and activates p300, a specific tool to intervene GAPDH nuclear translocation is needed. Several structural analogues of deprenyl that blocked GAPDH-Siah1 binding and the nuclear GAPDH cascade were previously screened (data not shown).
# MAO-A/B = assay: MAO activity assay in cultured myocytes; type: cell-based, rat; settings: concentrations between 0.1 nM and 10^5 nM
# Procedure: (§2) HAT activity assay, MEF2 activity assay, MAO activity assay, GAPDH assay: p300 HAT activity was measured using commercially available kit (Biovision), using immunoprecipitation with p300 antibody (Circulation 118, 934-946 (2008)). MEF2 activity was measured using luciferase reporter assay (Panomics). MAO activity assay was measured using commercially available kit (Peninsula Laboratory). GAPDH activity was measured as previously described in (Nat. Cell Biol., 7, 665-674 (2005)). PUMA mRNA expression was determined by real time RT-PCR using SYBR Green fluorescence on a LightCycler instrument (Roche Applied Science). Expression of the gene of interest was divided by the housekeeping gene glyceraldehyde-3-phosphate dehydrogenase (GAPDH) and presented as fold induction of control.
# A major challenge to identify a compound that selectively blocks the nuclear GAPDH cascade is their potential inhibition of monoamine oxidases (MAOs), which deprenyl originally harbors. Thus, it was examined whether RR inhibits MAO-A/B in cultured myocytes and a dramatic contrast was observed between RR and deprenyl. There was no inhibition of MAOs by RR in a wide range of concentrations between 0.1 nM and 10^5 nM concentrations (FIG. 4C).
# GAPDH = target: T1, GAPDH (Rattus norvegicus, UniProt P04797); assay: GAPDH glycolytic activity in cultured cardiac cells; type: cell-based; settings: cardiac myocytes, 1 nM, 48 hours
# T1 construct: endogenous in cells; host or cells: cultured rat neonatal cardiac cells (from Sprague-Dawley rats)
# Procedure: as §1
# as §2, with “control. […]” for “control.”
# [1] = test system: GAPDH-Siah1 binding / nuclear translocation of GAPDH; assay: GAPDH nuclear cascade in cardiac myocytes exposed to ET1 (co-immunoprecipitation, immunostaining, fractionation); type: cell-based, rat
# Procedure: Physiological analysis, histological analysis: Echocardiography and pressure-volume loop studies were performed as described previously (Takimoto et al., Nat. Med., 11, 214-222 (2005)). 10% formalin fixed heart samples were embedded in paraffin, sectioned and stained for myocyte size (WGA staining) and fibrosis (Masson Trichrome staining) as described previously (Zhang et al., J. Am. Coll. Cardiol., 56, 2021-2030 (2010)). Isolated adult cardiac myocyte or rat neonatal cardiac myocyte was fixed with 50% methanol/50% acetone and stained with antibodies against GAPDH (Millipore), sulphonated GAPDH or HA as previously described.
# (§3) Rat neonatal cardiac myocyte culture: Rat neonatal cardiac myocytes (RNCM) were isolated from 1-2-day-old Sprague-Dawley rats, and cultured cells stimulated with 0.05 μM Endothelin-1, with or without 1 nM RR compound for 48 hours. Protein synthesis was assessed by [^3H]leucine incorporation. Adenoviral transfection of wild-type GAPDH and K227A mutant GAPDH was performed at 10-30 moi as previously described.
# (§4) Protein and RNA analysis: Total RNA was isolated from cells or left ventricular myocardium with Trizol (Molecular Research Center, Inc, Cincinnati, Ohio) and analyzed by real-time polymerase chain reaction (PCR) with TaqMan probes (Applied Biosystems, Foster City, Calif.). Results were normalized to GAPDH or 18S RNA. Cell lysates or nuclear extracts were obtained from cultured myocytes or ventricular tissue, resolved by SDS-polyacrylamide gel electrophoresis, subjected to immunoblotting and imaged by chemiluminescence as previously described.
# To test a role for the GAPDH-p300 signaling in heart hypertrophy, the Gq agonist ET1 was used as a trigger. ET1 is reported to elicit oxidative stress by activating NADPD oxidase and stress is known as a central contributor to cardiac hypertrophic response including pressure-load hypertrophy, as in the TAC model. Thus, cardiac myocytes were exposed to ET1 at 0.05 μM for about 48 hours and the effects on GAPDH signaling was examined. […]
# p300 HAT / MEF2 = assay: p300 acetylation and MEF2 luciferase reporter activity in cardiac myocytes treated with ET1; type: cell-based, rat
# Procedure: as §3, §2
# (§5) Augmented p300 activity reportedly leads to cardiac hypertrophic response via activation of myocyte enhancer factor 2 (MEF2), a master transcriptional factor of mal-adaptive cardiac hypertrophy. Thus, acylation of p300, and activity of MEF2 was tested, together with several outcome measures for hypertrophy response. In cardiac myocytes treated with ET1, augmentation of p300 acylation (reflecting p300 HAT activity), an augmented activity of MEF2, and increases in cell surface area, protein synthesis assayed by ^3H-leucine uptake, and B-type natriuretic peptide (BNP) expression were observed (FIGS. 5D, E).
# [2] = test system: rat neonatal cardiac myocytes; assay: hypertrophy response of rat neonatal cardiac myocytes to ET1; type: cell-based; settings: ET1-treated cardiac myocytes, 1 nM
# Procedure: as §3, §4, §5
# TAC hearts [3] = assay: TAC chronic pressure-overload cardiac hypertrophy model, treatment from time of constriction; type: in vivo, mouse
# Procedure: Cardiac animal models: All protocols were approved by Animal Care and Use Committee of the Johns Hopkins University. TAC was performed in C57/BL6 mice (Jackson Laboratory) as previously described in (Nat. Med., 11, 214-222 (2005), J. Clin. Invest., 119, 408-420 (2009), J. Am. Coll. Cardiol., 56, 2021-2030 (2010)). Physiological analysis, histological analysis: Echocardiography and pressure-volume loop studies were performed as described previously (Takimoto et al., Nat. Med., 11, 214-222 (2005)). 10% formalin fixed heart samples were embedded in paraffin, sectioned and stained for myocyte size (WGA staining) and fibrosis (Masson Trichrome staining) as described previously (Zhang et al., J. Am. Coll. Cardiol., 56, 2021-2030 (2010)). Isolated adult cardiac myocyte or rat neonatal cardiac myocyte was fixed with 50% methanol/50% acetone and stained with antibodies against GAPDH (Millipore), sulphonated GAPDH or HA as previously described. HAT activity assay, MEF2 activity assay, MAO activity assay, GAPDH assay: p300 HAT activity was measured using commercially available kit (Biovision), using immunoprecipitation with p300 antibody (Circulation 118, 934-946 (2008)). MEF2 activity was measured using luciferase reporter assay (Panomics). MAO activity assay was measured using commercially available kit (Peninsula Laboratory). GAPDH activity was measured as previously described in (Nat. Cell Biol., 7, 665-674 (2005)). PUMA mRNA expression was determined by real time RT-PCR using SYBR Green fluorescence on a LightCycler instrument (Roche Applied Science). Expression of the gene of interest was divided by the housekeeping gene glyceraldehyde-3-phosphate dehydrogenase (GAPDH) and presented as fold induction of control. Protein and RNA analysis: Total RNA was isolated from cells or left ventricular myocardium with Trizol (Molecular Research Center, Inc, Cincinnati, Ohio) and analyzed by real-time polymerase chain reaction (PCR) with TaqMan probes (Applied Biosystems, Foster City, Calif.). Results were normalized to GAPDH or 18S RNA. Cell lysates or nuclear extracts were obtained from cultured myocytes or ventricular tissue, resolved by SDS-polyacrylamide gel electrophoresis, subjected to immunoblotting and imaged by chemiluminescence as previously described. To understand the pathology underlying heart hypertrophy, chronic pressure overload induced by transverse aorta constriction (TAC) is used as an established experimental animal model. Heart hypertrophy is evident at 7 to 10 days after the constriction, which leads to irreversible functional defects in 9 weeks. In the present study, the TAC model was employed and identified GAPDH as a key conveyer of the pathological stress signal to nuclear p300, resulting in disruption of critical homeostasis in vivo. In the present invention, the significance of the nuclear GAPDH cascade in vivo has been shown. With this understanding there is also provided novel therapeutic methods of treatment of stress induced disorders, including, for example, cardiac hypertrophy, which are urgent and very important medical needs.
# TAC hearts [4] = assay: TAC model, delayed RR treatment of pre-existing cardiac hypertrophy; type: in vivo, mouse
# Procedure: Cardiac animal models: All protocols were approved by Animal Care and Use Committee of the Johns Hopkins University. TAC was performed in C57/BL6 mice (Jackson Laboratory) as previously described in (Nat. Med., 11, 214-222 (2005), J. Clin. Invest., 119, 408-420 (2009), J. Am. Coll. Cardiol., 56, 2021-2030 (2010)). Physiological analysis, histological analysis: Echocardiography and pressure-volume loop studies were performed as described previously (Takimoto et al., Nat. Med., 11, 214-222 (2005)). 10% formalin fixed heart samples were embedded in paraffin, sectioned and stained for myocyte size (WGA staining) and fibrosis (Masson Trichrome staining) as described previously (Zhang et al., J. Am. Coll. Cardiol., 56, 2021-2030 (2010)). Isolated adult cardiac myocyte or rat neonatal cardiac myocyte was fixed with 50% methanol/50% acetone and stained with antibodies against GAPDH (Millipore), sulphonated GAPDH or HA as previously described. Protein and RNA analysis: Total RNA was isolated from cells or left ventricular myocardium with Trizol (Molecular Research Center, Inc, Cincinnati, Ohio) and analyzed by real-time polymerase chain reaction (PCR) with TaqMan probes (Applied Biosystems, Foster City, Calif.). Results were normalized to GAPDH or 18S RNA. Cell lysates or nuclear extracts were obtained from cultured myocytes or ventricular tissue, resolved by SDS-polyacrylamide gel electrophoresis, subjected to immunoblotting and imaged by chemiluminescence as previously described. In most clinical settings, medication and treatment starts only after pathological changes occur at least to some extent.
# DN-DISC1 mice = assay: three chamber social novelty test in DN-DISC1 mice; type: in vivo, mouse
# Source text: DN-DISC1 mice express a putative dominant-negative C-terminal truncated DISC1 under expression control of the α CaMKII promoter. Homozygous DN-DISC1 mice were created by systematic cross-breeding of heterozygotes followed by interbreeding of homozygotes at the Johns Hopkins School of Medicine. In the current studies only homozygous males were used. At 3 to 6 months of age, mice were transferred to the Neurogenetics and Behavior Center, Johns Hopkins University, for behavioral testing. They were housed three or four to a cage under a 12 hour light/dark cycle (lights on at 7:00 A.M to 7:00 P.M) and weighed between 25 and 35 grams prior to food deprivation.
# Measurement of Social Novelty Test: Wt and DN-DISC1 mice were treated with RR compound or control starting at postnatal day 35 (0.25 mg/kg, i.p./day) and continuing throughout the three-chamber social interaction test in adulthood as described in Johnson et al., supra.
# The inventors treated DN-DISC1 mice with RR starting at postnatal day 35 (0.25 mg/kg, i.p./day) and continuing throughout the three-chamber social interaction test in adulthood.
# [5] = ET1 exposure, co-treatment with RR
# [6] = ET1-treated cardiac myocytes, 1 nM
# [7] = 0.25 mg/kg/day i.p. from constriction, measured after 10th day (TAC10)
# [8] = pressure volume loop analysis, RR versus vehicle treatment
# Chain of GAPDH-Siah1 binding (P04406 whole entry): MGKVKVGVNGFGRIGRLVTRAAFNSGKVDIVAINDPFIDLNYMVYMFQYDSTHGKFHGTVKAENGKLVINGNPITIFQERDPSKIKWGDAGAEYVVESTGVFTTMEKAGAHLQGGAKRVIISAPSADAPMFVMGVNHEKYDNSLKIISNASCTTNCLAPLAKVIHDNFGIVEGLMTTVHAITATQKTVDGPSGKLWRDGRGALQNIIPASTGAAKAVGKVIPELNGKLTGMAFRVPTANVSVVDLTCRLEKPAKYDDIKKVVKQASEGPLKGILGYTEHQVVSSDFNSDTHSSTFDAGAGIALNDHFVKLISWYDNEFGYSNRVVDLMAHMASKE
# T1 sequence (P04797 whole entry): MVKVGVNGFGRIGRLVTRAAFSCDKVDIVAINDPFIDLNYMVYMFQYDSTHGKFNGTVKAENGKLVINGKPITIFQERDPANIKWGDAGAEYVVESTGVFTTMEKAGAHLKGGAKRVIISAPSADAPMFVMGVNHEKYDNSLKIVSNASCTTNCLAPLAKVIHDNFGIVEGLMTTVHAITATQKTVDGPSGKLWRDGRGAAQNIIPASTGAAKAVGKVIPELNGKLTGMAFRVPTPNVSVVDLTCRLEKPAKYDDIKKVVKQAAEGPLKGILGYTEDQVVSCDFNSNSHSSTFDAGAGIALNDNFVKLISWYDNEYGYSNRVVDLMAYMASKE
compound,measurement,setting,value
"C#CCN1[C@H](C)Cc2ccccc2[C@H]1C [RR, (1R,3R)-1,3-dimethyl-2-propargyl-1,2,3,4-tetrahydroisoquinoline]",GAPDH-Siah1 interaction in vitro,GAPDH-Siah1 binding,blocked the interaction at nanomolar concentrations
same,inhibition of MAOs,MAO-A/B,no inhibition
same,GAPDH glycolytic activity,GAPDH,did not show any influence
same,GAPDH-Siah1 binding augmented by ET1,"[1]; ET1 0.05 μM about 48 hours, co-administration of RR",normalized
same,nuclear translocation of GAPDH in response to ET1,"[1]; ET1 0.05 μM, co-treatment 1 nM",blocked
same,accumulation of sulphonated GAPDH in the nucleus,[1]; [5],blocked
same,augmentation of p300 acylation (reflecting p300 HAT activity),p300 HAT / MEF2; [6],clearly blocked
same,augmented activity of MEF2,p300 HAT / MEF2; [6],clearly blocked
same,augmentation of p300 acetylation (reflecting p300 HAT activity) in the nucleus,p300 HAT / MEF2; [5],blocked
same,PUMA expression,[2],unchanged
same,increase in B-type natriuretic peptide (BNP) expression,[2],clearly blocked
same,increase in cell surface area,[2],clearly blocked
same,increase in protein synthesis assayed by 3H-leucine uptake,[2],clearly blocked
same,levels of nuclear GAPDH in TAC hearts,TAC hearts [3]; [7],dramatically reduced
same,levels of p300 HAT activity in TAC hearts,TAC hearts [3]; [7],dramatically reduced
same,cardiac hypertrophy remodeling assessed by cardiac myocyte cell size,"TAC hearts [3]; 0.25 mg/kg/day i.p., TAC",ameliorated
same,cardiac hypertrophy remodeling assessed by fibrosis,"TAC hearts [3]; 0.25 mg/kg/day i.p., TAC",ameliorated
same,cardiac hypertrophy remodeling assessed by heart weight,"TAC hearts [3]; 0.25 mg/kg/day i.p., TAC",ameliorated
same,TAC-induced left ventricular dilatation (LV-EDD),TAC hearts [3]; echocardiogram,significantly inhibited
same,TAC-induced reduction in Fractional Shortening (% FS),TAC hearts [3]; echocardiogram,significantly inhibited
same,cardiac performance despite sustained pressure-overload stress,"TAC hearts [3]; invasive hemodynamic study, pressure volume loop analysis",improvement of cardiac performance
same,pathological gene expression profile: down-regulation of calcium handling proteins,"TAC hearts [3]; myocardial mRNA, TAC",significantly improved or normalized
same,"pathological gene expression profile: fetal gene re-expression (BNP, β-MHC)","TAC hearts [3]; myocardial mRNA, TAC",significantly improved or normalized
same,diastolic relaxation properties (Tau),TAC hearts [3]; [8],significantly better
same,systolic function (dPdtmx),TAC hearts [3]; [8],significantly better
same,expression profile of cardiac fetal gene (BNP),"TAC hearts [4]; delayed treatment, RR-treated versus vehicle group",significant improvement
same,cardiac myocyte size (terminal postmortem assessment),"TAC hearts [4]; treatment initiated 1 week after TAC, about two weeks",smaller
same,further LV mass increase from sustained pressure overload,"TAC hearts [4]; treatment initiated 1 week after TAC, about two weeks of treatment, echocardiogram",significantly blocked
same,social deficit (impaired social recognition),"DN-DISC1 mice; 0.25 mg/kg, i.p./day from postnatal day 35 through testing in adulthood",ameliorated the social deficit
same,sniffing preference for stranger versus familiar mouse,"DN-DISC1 mice; DISC1 mice treated with RR (n=7), p<0.05",preferentially sniffed the stranger mouse over the familiar mouse
